Test results as given in PMC3497018, “Anti-Human Rhinoviral Activity of Polybromocatechol Compounds Isolated from the Rhodophyta, Neorhodomela aculeata” (Marine Drugs, 2012).
In brackets after ≈: the same amount, converted by molar mass. Read-outs that look alike come from different tables or passages of the source.

Tests used:
[1] = test system: HRV2; experiment: Microscopic observation of HRV2-induced CPE in HeLa cells; format: cell-based, human rhinovirus; conditions: HRV2-infected HeLa cells, 20 μg/mL, 32 °C, 2 days
Method: (§1) After a 2-day infection of HeLa cells with HRV2 and HRV3, the effect of compound 1 and compound 3 on HRV-induced cytopathic effect (CPE) investigated.
(§2) Figure 3 The effect of compound 1 or compound 3 on HRV2 (left group; I) and HRV 3 (right group; II)-induced CPE. The virus-infected cells were treated with compound 1 or compound 3 of 20 μg/mL. After incubation at 32 °C in 5% of CO2 for 2 days, the cell morphology was photographed under a microscope.
(§3) Briefly, HeLa cells were seeded onto a 96-well culture plate at a concentration of 2 × 10^4 cells per well. The next day, the medium was removed and washed with PBS. Then, 0.09 mL of diluted virus suspension and 0.01 mL of medium supplemented with 20 mM MgCl2 containing compound 1 or compound 3 of 20 μg/mL were added. After incubation at 32 °C in 5% CO2 for 2 days, the morphology of cells was observed under microscope of 32 × 10 magnifications (St Ernst-Leitz, Wetzlar, Germany), and images were recorded.

[2] = test system: HRV2; experiment: Antiviral activity, SRB method using CPE reduction, HRV2-infected HeLa cells; format: cell-based, human rhinovirus; conditions: for IC50: Human rhinovirus sp., HRV2, HeLa, HRV2 in HeLa cells, mean ± S.D., read-out: IC50, concentration required to inhibit virus-induced cytopathic effect (CPE) by 50%; for TI, therapeutic index = CC50/IC50: HRV2; for antiviral activity against HRV2 (in words): HeLa cells
Method: (§4) HRV 2 and 3 were provided by the ATCC (American Type Culture Collection, Manassas, VA, USA) and were propagated in human epitheloid carcinoma cervix (HeLa) cells at 32 °C. HeLa cells were maintained in minimal essential medium (MEM) supplemented with 10% fetal bovine serum (FBS) and 0.01% antibiotic-antimycotic.
(§5) Assays of antiviral activity and cytotoxicity were evaluated by the SRB method using CPE reduction, recently reported. […] Next day, medium was removed and then washed with 1× phosphate buffered saline (PBS). Infectivity of virus stock was determined by the SRB method using cytopathic effect (CPE) reduction and was determined as infectivity of the virus by SRB ID50 (50% infective dose). […] The antiviral activity of each test material was determined with a 10-fold diluted concentration ranging from 0.1 to 100 μg/mL. Three wells were used as virus controls (virus-infected non-drug-treated cells) while three wells were used as cell controls (non-infected non-drug-treated cells). The culture plates were incubated at 37 °C in 5% CO2 for 2 days. After washing 1 times with 1× PBS, 100 μL of cold (−20 °C) 70% acetone were added to each well and left for 30 min at −20 °C. 70% acetone was removed and 96-well plates were left at dry oven for 30 min. 100 μL of 0.4% (w/v) SRB in 1% acetic acid solution were added to each well and left at room temperature for 30 min. Unbound SRB was removed and the plates were washed 5 times with 1% acetic acid before oven drying and were then left in a dry oven for 1 day. Bound SRB was solubilized with 100 μL of 10 mM unbuffered tris-base solution and plates were left on a table for 30 min. The absorbance was read at 540 nm by using a VERSAmax microplate reader (Molecular Devices, Palo Alto, CA, USA) with a reference absorbance at 620 nm. To calculate the IC50 values, the results were transformed to percentage of controls and the IC50 values were graphically obtained from the dose-response curves. The percent protection achieved by the test compound in HRV2 or HRV3-infected cells was calculated by the following formula: […]
(§6) where (ODt)virus is the optical density measured with a given concentration of the test compound in virus-infected cells; (ODc)virus is the optical density measured for the control untreated virus-infected cells; and (ODc)mock is the optical density measured for control untreated mock-infected cells. The concentration achieving 50% protection according to the formula above was defined as the 50% inhibitory concentration (IC50). The therapeutic index was defined as CC50/IC50. […] Next day, medium was removed and the 96-well plates were replaced with media containing the serially diluted compounds and the cells were further incubated for 48 h. The culture medium was removed and washed with 1× PBS. The next step was conducted by antiviral activity assay above described. To calculate the CC50 values, the results were transformed to percentage of controls and the CC50 values were graphically obtained from the dose-response curves. Ribavirin was used as positive, and dimethyl sulfoxide (DMSO) was used as negative control.

[3] = test system: HRV3; experiment: Antiviral activity, SRB method using CPE reduction, HRV3-infected HeLa cells; format: cell-based, human rhinovirus; conditions: for antiviral activity against HRV3 (in words): HeLa cells; for IC50: Human rhinovirus sp., HRV3, HeLa, HRV3 in HeLa cells, mean ± S.D., ND = maximum inhibition rate under 50%, read-out: IC50, concentration required to inhibit virus-induced cytopathic effect (CPE) by 50%
Method: as §4, §5, §6

[4] = Cytotoxicity, SRB method, non-infected HeLa cells, 48 h; format: cell-based, human; conditions: human, non-infected HeLa cells, Table 4, read-out: CC50, concentration required to reduce cell growth by 50%
Method: as §5, §6

[5] = test system: HRV3; experiment: Microscopic observation of HRV3-induced CPE in HeLa cells; format: cell-based, human rhinovirus; conditions: HRV3-infected HeLa cells, 20 μg/mL, 32 °C, 2 days
Method: as §1, §2, §3

[6] = test system: HeLa cells; experiment: Cytotoxicity, SRB method, non-infected HeLa cells, 48 h; format: cell-based, human; conditions: Table 2, column under HRV3
Method: as §5, §6

Row | SMILES | effect on HRV2-induced visible CPE [1] | IC50 ([2]; Table 4) | antiviral activity against HRV3 (in words) [3] | CC50 at 48 h [4] | antiviral activity against HRV2 (in words) [2] | other results
1 | OCc1cc(O)c(O)c(Br)c1Br [Compound 1, 2,3-Dibromo-4,5-dihydroxybenzyl alcohol] | inhibited the formation of a visible CPE | 2.5 ± 0.66 µg/mL (≈ 8.39 µM) | did not show anti-HRV3 activity | > 20 µg/mL |  | TI, therapeutic index = CC50/IC50 ([2]; Table 4): 8.00
2 | O=Cc1cc(O)c(O)c(Br)c1Br [Compound 2, 2,3-Dibromo-4,5-dihydroxybenzaldehyde] |  |  | no antiviral effect |  | no antiviral effect | 
3 | COCc1cc(O)c(O)c(Br)c1Cc1cc(O)c(O)c(Br)c1Br [Compound 3, 2,2′,3-Tribromo-3′,4,4′,5-tetrahydroxy-6′-methoxymethyldiphenylmethane] | inhibited the formation of a visible CPE | 7.11 ± 0.64 µg/mL (≈ 13.9 µM) |  | > 20 µg/mL |  | effect on HRV3-induced visible CPE [5]: inhibited the formation of a visible CPE; TI, therapeutic index = CC50/IC50 ([2]; Table 4): 2.81; IC50 ([3]; Table 4): 4.69 ± 0.44 µg/mL (≈ 9.14 µM); TI, therapeutic index = CC50/IC50 ([3]; Table 4, HRV3): 4.26
4 | COCc1cc(O)c(O)c(Br)c1Br [Compound 4, 2,3-Dibromo-4,5-dihydroxybenzyl methyl ether] |  |  | no antiviral effect |  | no antiviral effect | 
5 | COCc1cc(Br)c(O)c(O)c1Br [Compound 5, 2,5-Dibromo-3,4-dihydroxy-benzyl methyl ether] |  |  | no antiviral effect |  | no antiviral effect | 
6 | Oc1cc(Cc2cc(O)c(O)c(Br)c2Br)c(Br)c(Br)c1O [Compound 6, 2,2′,3,3′-Tetrabromo-4,4′,5,5′-tetrahydroxydiphenylmethane] |  |  | no antiviral effect |  | no antiviral effect | 
7 | NC(=O)c1ncn([C@@H]2O[C@H](CO)[C@@H](O)[C@H]2O)n1 [Ribavirin, reference compound] | prevented a CPE | 2.15 ± 0.51 µg/mL (≈ 8.8 µM) |  | > 20 µg/mL |  | effect on HRV3-induced visible CPE [5]: prevented a CPE; IC50 ([2]; Table 2, ND = maximum inhibition rate under 50%): 17.1 ± 1.48 µg/mL (≈ 70.2 µM); IC50 ([3]; Table 2): 14.2 ± 2.2 µg/mL (≈ 58.4 µM); IC50 ([3]; Table 4): 5.09 ± 0.6 µg/mL (≈ 20.8 µM); CC50, concentration required to reduce cell growth by 50% [6]: >20 µg/mL
